Legend:
[1] = target: T1, human neonatal receptor (FcRn) (Homo sapiens, UniProt P55899); test: surface plasmon resonance binding (BIACORE); settings: three independent runs
T1 construct: made in house
Description: (§1) Briefly, rhTrop-2/TACSTD2 (Sino Biological, Inc.) or recombinant human neonatal receptor (FcRn), produced as described (Wang et al., 2011, Drug Metab Dispos 39:1469-77), was immobilized with an amine coupling kit (GE Healthcare; Cat. No. BR-1000-50) on a CM5 sensor chip (GE Healthcare; Cat. #BR-1000-12) following manufacturer's instructions for a low-density chip. […] Each set would make up a separate run on the BIACORE (BIACORE-X; Biacore Inc., Piscataway, N.J.) and data were analyzed using BIAevaluation Software (Biacore Inc., v4.1). Analysis was performed with a 1:1 (Langmuir) Binding Model and Fit, using all five concentration points for each sample run to determine the best fit (lowest χ^2 value). The KD value was calculated using the formula KD=kd1/ka1, where kd1 is the dissociation rate-constant and ka1 is the association-rate constant.

rhTrop-2/TACSTD2 = target: T2, rhTrop-2/TACSTD2 (Homo sapiens, UniProt P09758); test: surface plasmon resonance binding (BIACORE); settings: three independent runs
T2 construct: purchased Sino Biological, Inc
T2 sequence (P09758 27-323): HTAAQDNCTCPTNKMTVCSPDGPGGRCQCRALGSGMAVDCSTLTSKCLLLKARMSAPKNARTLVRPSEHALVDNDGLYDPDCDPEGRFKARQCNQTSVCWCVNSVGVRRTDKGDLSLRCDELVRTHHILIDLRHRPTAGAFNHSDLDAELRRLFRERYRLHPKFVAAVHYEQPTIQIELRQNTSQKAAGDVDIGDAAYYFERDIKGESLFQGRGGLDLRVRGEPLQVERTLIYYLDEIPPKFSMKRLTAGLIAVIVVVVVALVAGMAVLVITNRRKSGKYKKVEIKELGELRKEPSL
Description: as §1

[2] = system: stage IV metastatic gastric cancer; test: therapy of a gastric cancer patient; format: in vivo, human; settings: after another 5 courses
[3] = storage stability of lyophilized IMMU-132; format: physicochemical
[4] = system: NCI-N87 human gastric tumors; test: NCI-N87 xenograft therapy (FIG. 23); settings: 0.35 mg twice weekly for four weeks
HCC1395 (Trop-2−) = test: dsDNA breaks, rH2AX flow cytometry; format: cell-based, human; settings: untreated baseline 122
colorectal cancer = test: Phase I/II clinical trial of IMMU-132, CRC; format: in vivo, human

T1 sequence (P55899 24-297 limits assumed): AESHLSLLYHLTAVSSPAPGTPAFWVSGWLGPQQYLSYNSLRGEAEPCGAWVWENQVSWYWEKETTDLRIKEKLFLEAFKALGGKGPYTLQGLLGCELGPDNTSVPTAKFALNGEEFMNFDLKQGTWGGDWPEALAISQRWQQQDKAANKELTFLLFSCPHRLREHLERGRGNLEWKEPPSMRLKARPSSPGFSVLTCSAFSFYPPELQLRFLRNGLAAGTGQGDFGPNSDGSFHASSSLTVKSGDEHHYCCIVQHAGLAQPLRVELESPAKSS
T1 sequence (P61769 21-119 partner): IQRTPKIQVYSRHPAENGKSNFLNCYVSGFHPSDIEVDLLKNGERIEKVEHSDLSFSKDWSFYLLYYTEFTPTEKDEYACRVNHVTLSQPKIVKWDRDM

With hRS7 IgG as the substance, how does the Kd [1] read?
Its Kd is 92.4 ± 5.7 nM.

And the Kd (rhTrop-2/TACSTD2)?
The Kd was 0.51 ± 0.04 nM.

With IMMU-132 as the substance, how does the “disease reduction by RECIST at follow-up” value [2] read?
The value was “about 35%”.

What about the “stability once prepared and lyophilized” value [3] of the same substance?
The value was “stable for several years”.

And the partial responders [4]?
The partial responders was 6 of 7.

And the “Median fluorescence intensity (rH2AX)” value (HCC1395 (Trop-2−))?
The value was 123.

What about the PD (colorectal cancer; of 18 assessable patients) of the same substance?
Its PD is 6.

What about the PR (colorectal cancer; of 18 assessable patients) of the same substance?
The PR was 1.

And the “maximum reduction in target lesions” value (colorectal cancer; person, after 10 months)?
The value was 65%.

And the “plasma CEA after treatment” value (colorectal cancer; person, from 781 ng/mL)?
The value was 26.5 ng/mL.

From US10954305B2 (Immunomedics, Inc., priority 2016, dated 2021)
